Test results reported in ChEMBL document CHEMBL4346738, “Biological evaluation of molecules of the azaBINOL class as antiviral agents: Inhibition of HIV-1 RNase H activity by 7-isopropoxy-8-(naphth-1-yl)quinoline” (Bioorg Med Chem, 2019).
Blank lines part the entries; values can stand above or below the compound they belong to. Activity calls are given as the source filed them. The rule behind the calls is not given here.

Key:
[1] = Selectivity index, ratio of CC50 for human LC5 cells to IC50 for antiviral activity against HIV1 LAI infected in human LC5 cells; format: toxicity, cell-based; conditions: read-out: Ratio CC50/IC50
[2] = system: Human immunodeficiency virus 1; assay: Antiviral activity against HIV1 HXB2 pseudovirus infected in human TZM-bl cells assessed as inhibition of viral infection incubated for 20 mins prior to infection and measured after 48 hrs by bright Glo-luciferase reporter gene assay; format: functional, organism-based, M:B_HXB2R
[3] = system: Human immunodeficiency virus 1; assay: Antiviral activity against HIV1 LAI infected in human LC5 cells expressing DsRed1 reporter gene assessed as inhibition of viral infection measured after 48 hrs post infection by reporter gene based […] assay; format: functional, organism-based
[4] = system: Human immunodeficiency virus 1; assay: Antiviral activity against HIV1 YU2 pseudovirus infected in human TZM-bl cells assessed as inhibition of viral infection incubated for 20 mins prior to infection and measured after 48 hrs post infection by bright Glo-luciferase reporter gene assay; format: functional, organism-based, isolate YU2
[5] = (§1) Cytotoxicity against human TZM-bl cells assessed as reduction in cell viability after 48 hrs by MTT assay; format: cell-based; conditions: TZM-bl cells
[6] = system: Human immunodeficiency virus 1; assay: Antiviral activity against HIV1 89.6 pseudovirus infected in human TZM-bl cells assessed as inhibition of viral infection incubated for 20 mins prior to infection and measured after 48 hrs post infection by bright Glo-luciferase reporter gene assay; format: functional, organism-based, M:B_89.6
[7] = Cytotoxicity against human LC5 cells assessed as reduction in cell viability incubated for 48 hrs by resazurin dye-based assay; conditions: for CC50 at 48 h: LC5 cells
[8] = Half life of the compound in methyl alcohol assessed as compound racemization at 24 degC; format: physicochemical
[9] = system: Human immunodeficiency virus 1; assay: Antiviral activity against HIV1 89.6 pseudovirus infected in human TZM-bl cells assessed as inhibition of viral infection up to 200 uM incubated for 20 mins prior to infection and measured after 48 hrs post infection by bright Glo-luciferase reporter gene assay; format: functional, organism-based; conditions: M:B_89.6
[10] = system: Human immunodeficiency virus 1; assay: Antiviral activity against HIV1 HXB2 pseudovirus infected in human TZM-bl cells assessed as inhibition of viral infection up to 200 uM incubated for 20 mins prior to infection and measured after 48 hrs post infection by bright Glo-luciferase reporter gene assay; format: functional, organism-based; conditions: M:B_HXB2R
[11] = system: Human immunodeficiency virus 1; assay: Antiviral activity against HIV1 LAI infected in human LC5 cells expressing DsRed1 reporter gene assessed as inhibition of viral infection up to 200 uM measured after 48 hrs post infection by reporter gene based […] assay; format: functional, organism-based
[12] = system: TZM; assay: as §1; format: cell-based; conditions: tzm, 48 h
[13] = system: Human immunodeficiency virus 1; assay: Antiviral activity against HIV1 YU2 pseudovirus infected in human TZM-bl cells assessed as inhibition of viral infection up to 200 uM incubated for 20 mins prior to infection and measured after 48 hrs post infection by bright Glo-luciferase reporter gene assay; format: functional, organism-based; conditions: isolate YU2
[14] = Selectivity index, ratio of CC50 for human TZM-bl cells to IC50 for antiviral activity against HIV1 HXB2 pseudovirus infected in human TZM-bl cells; format: toxicity, cell-based; conditions: read-out: Ratio CC50/IC50
[15] = molecular target: T1, Human immunodeficiency virus type 1 reverse transcriptase (Human immunodeficiency virus 1, UniProt Q72547); assay: Inhibition of HIV1 reverse transcriptase RNase H using 18-nucleotide 3'-fluorescein-labeled RNA/5'-dabcyl-labeled DNA hybrid as substrate measured after 1 hr by FRET based assay
[16] = system: Human immunodeficiency virus 1; assay: Antiviral activity against HIV1 89.6 pseudovirus infected in human TZM-bl cells assessed as inhibition of viral infection at 20 nM measured after 48 hrs post infection by bright Glo-luciferase reporter gene assay relative to control; format: functional; conditions: Human immunodeficiency virus 1, M:B_89.6, TZM-bl
[17] = system: Human immunodeficiency virus 1; assay: Antiviral activity against HIV1 YU2 pseudovirus infected in human TZM-bl cells assessed as inhibition of viral infection at 20 nM measured after 48 hrs post infection by bright Glo-luciferase reporter gene assay relative to control; format: functional; conditions: Human immunodeficiency virus 1, isolate YU2, TZM-bl
[18] = system: Human immunodeficiency virus 1; assay: Antiviral activity against HIV1 HXB2 pseudovirus infected in human TZM-bl cells assessed as inhibition of viral infection at 20 nM measured after 48 hrs post infection by bright Glo-luciferase reporter gene assay relative to control; format: functional; conditions: Human immunodeficiency virus 1, M:B_HXB2R
[19] = Selectivity index, ratio of CC50 for human TZM-bl cells to IC50 for antiviral activity against HIV1 89.6 pseudovirus infected in human TZM-bl cells; format: toxicity, cell-based; conditions: read-out: Ratio CC50/IC50
[20] = Inhibition of Escherichia coli reverse transcriptase RNase H using 18-nucleotide 3'-fluorescein-labeled RNA/5'-dabcyl-labeled DNA hybrid as substrate measured after 1 hr by FRET based assay
[21] = molecular target: Reverse transcriptase (Moloney murine leukemia virus, UniProt Q83371); assay: Inhibition of Murine leukemia virus reverse transcriptase RNase H using 18-nucleotide 3'-fluorescein-labeled RNA/5'-dabcyl-labeled DNA hybrid as substrate measured after 1 hr by FRET based assay
[22] = molecular target: Human immunodeficiency virus type 1 integrase (Human immunodeficiency virus 1, UniProt Q7ZJM1); assay: Inhibition of recombinant HIV1 integrase strand transfer activity using biotin-labeled double-stranded HIV1 LTR U5 donor DNA substrate pretreated for 5 mins followed by substrate addition and measured after 30 mins by ELISA
Chain of Human immunodeficiency virus type 1 integrase (Q7ZJM1 whole entry): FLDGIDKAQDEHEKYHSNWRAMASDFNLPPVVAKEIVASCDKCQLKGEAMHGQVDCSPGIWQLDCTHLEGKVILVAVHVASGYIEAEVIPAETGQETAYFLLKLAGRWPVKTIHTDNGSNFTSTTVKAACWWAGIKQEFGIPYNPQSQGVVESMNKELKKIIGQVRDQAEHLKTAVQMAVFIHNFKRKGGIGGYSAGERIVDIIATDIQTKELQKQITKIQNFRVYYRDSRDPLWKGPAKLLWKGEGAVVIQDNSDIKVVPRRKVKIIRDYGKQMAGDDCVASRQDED

[23] = molecular target: T1, Human immunodeficiency virus type 1 reverse transcriptase; assay: Inhibition of HIV1 Reverse transcriptase polymerase assessed as decrease in digoxigenin and biotin-dUTP incorporation into DNA using poly(A)/oligo(dT)15 as template/primer by ELISA
[24] = system: Human immunodeficiency virus 1; assay: Selectivity ratio of IC50 for HIV1 V13-03413B infected in human LC5 cells to IC50 for HIV1 LAI infected in human LC5 cells; format: functional
[25] = Inhibition of Avian myeloblastosis virus reverse transcriptase RNase H using 18-nucleotide 3'-fluorescein-labeled RNA/5'-dabcyl-labeled DNA hybrid as substrate measured after 1 hr by FRET based assay
[26] = system: Human immunodeficiency virus 1; assay: Antiviral activity against HIV1 V13-03413B infected in human LC5 cells expressing DsRed1 reporter gene assessed as inhibition of viral infection measured after 48 hrs post infection by reporter gene based […] assay; format: functional, organism-based; conditions: Human immunodeficiency virus 1, V13-03413B
[27] = Compound aggregation in D2O/1% DMSO-d6 solvent assessed as change in chemical shift at 12 to 200 uM by 1H NMR dilution analysis; format: physicochemical
[28] = Compound aggregation in D2O/1% DMSO-d6 solvent assessed as number of resonance at 12 to 200 uM by 1H NMR dilution analysis; format: physicochemical
[29] = Metal chelating activity assessed as compound-Mg2+ complex formation in presence of varying concentrations of Mg2+ at 100 uM by UV-vis spectrometry; format: ADME
[30] = Compound aggregation in D2O/1% DMSO-d6 solvent assessed as peak shape at 12 to 200 uM by 1H NMR dilution analysis; format: physicochemical
[31] = molecular target: T1, Human immunodeficiency virus type 1 reverse transcriptase; assay: Binding affinity to recombinant wild-type full length HIV1 reverse transcriptase p66/p51 expressed in Escherichia coli by biolayer interferometry
[32] = Human immunodeficiency virus 1, M:B_HXB2R, TZM-bl, read-out: IC50
[33] = Human immunodeficiency virus 1, LAI, 48 h, read-out: IC50
[34] = Human immunodeficiency virus 1, isolate YU2, TZM-bl, read-out: IC50
[35] = Human immunodeficiency virus 1, M:B_89.6, TZM-bl, read-out: IC50

Compound: CC(C)Oc1ccc2ccccc2c1-c1cccc2cccnc12
- selectivity ratio [1]: 3.6
- IC50 [2, 32]: > 100 µM
- IC50 [3, 33]: 39.5 µM
- IC50 [4, 34]: > 100 µM
- CC50 at 48 h [5]: > 100 µM
- IC50 [6, 35]: > 100 µM
- CC50 at 48 h [7]: 145 µM

- half-life [8]: 120 h
Compound: Oc1ccc2cccnc2c1-c1cccc2ccccc12

Compound: CCN(CC)C(=O)Oc1ccc2cccnc2c1-c1cccc2cccnc12
- Activity [9]: inactive
- Activity [10]: inactive
- Activity [11]: inactive
- IC50 [2]: Not Active
- IC50 [3]: Not Active
- IC50 [4]: Not Active
- CC50 [12]: Non-Toxic
- IC50 [6]: Not Active
- Activity [13]: inactive
- CC50 at 48 h [7]: 383 µM

- half-life [8]: 89 h
Compound: Oc1ccc2ccccc2c1-c1cccc2cccnc12

Compound: O=C1Nc2ccc(Cl)cc2[C@@](C#CC2CC2)(C(F)(F)F)O1 [EFAVIRENZ]
- CC50 [12]: Non-Toxic

Compound: CCN(CC)C(=O)Oc1ccc2ccccc2c1-c1cccc2cccnc12
- selectivity ratio [1]: 1.4
- IC50 [2, 32]: 12.6 µM
- IC50 [3, 33]: 50.1 µM
- selectivity ratio [14]: 5.5
- IC50 [4, 34]: 14 µM
- CC50 at 48 h [5]: 69.3 µM
- IC50 [6, 35]: 16.8 µM
- CC50 at 48 h [7]: 71.4 µM

Compound: NC(=O)c1c(N)sc2c1CCCCC2
- IC50 [15]: 28.1 µM

Compound: COc1cnc(-n2cnc(C)n2)c2[nH]cc(C(=O)C(=O)N3CCN(C(=O)c4ccccc4)CC3)c12
- inhibition at 0.02 µM [16]: 100%
- inhibition at 0.02 µM [17]: 100%
- inhibition at 0.02 µM [18]: 100%

Compound: CCN(CC)C(=O)Oc1ccc2cccnc2c1-c1cccc2ccccc12
- selectivity ratio [1]: 2.2
- IC50 [2, 32]: 61.4 µM
- selectivity ratio [19]: 1.7
- IC50 [3, 33]: 24.1 µM
- IC50 [4, 34]: 77.6 µM
- CC50 at 48 h [5]: 95 µM
- IC50 [6, 35]: 56.6 µM
- CC50 at 48 h [7]: 51.9 µM

Compound: Cc1cc(/C=C/C#N)cc(C)c1Nc1ccnc(Nc2ccc(C#N)cc2)n1 [RILPIVIRINE]
- IC50 [20]: > 10 µM
- IC50 [15]: > 10 µM
- IC50 [21]: > 10 µM

Compound: CC(C)Oc1ccc2cccnc2c1-c1cccc2cccnc12
- Activity [9]: inactive
- IC50 [20]: > 100 µM
- Activity [10]: inactive
- IC50 [15]: > 100 µM
- Activity [11]: inactive
- IC50 [2]: Not Active
- IC50 [22]: > 100 µM
- IC50 [3]: Not Active
- IC50 [4]: Not Active
- IC50 [23]: > 100 µM
- CC50 [12]: Non-Toxic
- IC50 [6]: Not Active
- Activity [13]: inactive
- CC50 ([7]; 48 h): Non-Toxic
- IC50 [21]: > 100 µM

Compound: CC(C)Oc1ccc2cccnc2c1-c1cccc2ccccc12
- selectivity ratio [1]: 11.4
- Ratio IC50 [24]: 5
- IC50 [20]: 44.3 µM
- IC50 [25]: > 100 µM
- IC50 [15]: 46.8 µM
- IC50 [26]: 34.2 µM
- IC50 [2, 32]: 6.7 µM
- selectivity ratio [19]: 14.6
- Activity [27]: Not Active
- IC50 [22]: > 100 µM
- Activity [28]: Not Active
- IC50 [3, 33]: 6.7 µM
- IC50 [4, 34]: 8.9 µM
- Activity [29]: Not Active
- IC50 [23]: > 100 µM
- CC50 at 48 h [5]: 68.5 µM
- IC50 [6, 35]: 4.7 µM
- Activity [30]: Not Active
- Kd [31]: 38 µM
- CC50 at 48 h [7]: 86.5 µM
- IC50 [21]: > 100 µM
